# Data from ChEMBL document CHEMBL1142823, “Analysis of structure-activity relationships for the 'B-region' of N-(4-t-butylbenzyl)-N'-[4-(methylsulfonylamino)benzyl]-thiourea analogues as TRPV1 antagonists” (Bioorg Med Chem Lett, 2005).
# Experiments:
# [1] = biological target: T1, Transient receptor potential cation channel subfamily V member 1 (Rattus norvegicus, UniProt O35433); assay: In vitro inhibition of [3H]RTX binding to rat TRPV1 expressed in CHO cells; type: cell-based
# [2] = biological target: T1, Transient receptor potential cation channel subfamily V member 1; assay: Induction of [Ca2+] uptake in CHO cells expressing rat TRPV1 at 10-30 uM relative to 300 nM capsaicin; Not effective; type: functional, cell-based
# [3] = biological target: T1, Transient receptor potential cation channel subfamily V member 1; assay: Antagonist activity towards rat TRPV1 expressed in CHO cells; type: functional, cell-based
# [4] = biological target: T1, Transient receptor potential cation channel subfamily V member 1; assay: Antagonist activity towards rat TRPV1 expressed in CHO cells; Not effective; type: functional, cell-based
# [5] = biological target: T1, Transient receptor potential cation channel subfamily V member 1; assay: Induction of [Ca2+] uptake in CHO cells expressing rat TRPV1 at 10-30 uM relative to 300 nM capsaicin; Weakly effective; type: functional, cell-based
# [6] = biological target: T1, Transient receptor potential cation channel subfamily V member 1; assay: Induction of [Ca2+] uptake in CHO cells expressing rat TRPV1 relative to 300 nM capsaicin; type: functional, cell-based
# T1 sequence (O35433 whole entry): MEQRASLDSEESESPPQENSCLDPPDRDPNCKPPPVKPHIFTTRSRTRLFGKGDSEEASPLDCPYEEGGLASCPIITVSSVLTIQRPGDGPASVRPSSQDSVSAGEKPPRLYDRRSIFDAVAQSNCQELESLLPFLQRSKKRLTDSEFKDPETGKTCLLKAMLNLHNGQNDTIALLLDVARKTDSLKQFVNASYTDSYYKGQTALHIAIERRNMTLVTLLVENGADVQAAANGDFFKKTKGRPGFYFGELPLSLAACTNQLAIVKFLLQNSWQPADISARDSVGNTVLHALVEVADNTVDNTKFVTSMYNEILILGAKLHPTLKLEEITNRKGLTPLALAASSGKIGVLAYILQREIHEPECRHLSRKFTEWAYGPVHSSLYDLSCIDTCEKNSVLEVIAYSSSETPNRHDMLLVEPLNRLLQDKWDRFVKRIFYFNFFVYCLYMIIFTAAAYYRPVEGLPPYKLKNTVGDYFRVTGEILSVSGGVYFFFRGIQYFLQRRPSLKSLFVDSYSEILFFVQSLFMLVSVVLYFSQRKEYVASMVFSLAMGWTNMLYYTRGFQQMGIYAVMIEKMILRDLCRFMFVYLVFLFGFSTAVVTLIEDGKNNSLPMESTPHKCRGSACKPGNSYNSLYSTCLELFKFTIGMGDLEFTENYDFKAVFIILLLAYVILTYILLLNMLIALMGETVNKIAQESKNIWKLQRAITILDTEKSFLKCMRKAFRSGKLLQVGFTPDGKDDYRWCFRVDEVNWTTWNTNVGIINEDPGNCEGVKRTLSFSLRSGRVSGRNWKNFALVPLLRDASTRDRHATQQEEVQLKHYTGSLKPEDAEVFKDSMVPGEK
Structure (SMILES),Ki [1] [nM],EC50 [2],Ki [3] [nM],further results
CC(C)(C)c1ccc(CNC(=O)Cc2ccc(NS(C)(=O)=O)cc2)cc1,2100,Not Active,398,–
CC(C)(C)c1ccc(CC(=O)N(O)Cc2ccc(NS(C)(=O)=O)cc2)cc1,–,–,–,Ki [4]: Not Active
CC(C)(C)c1ccc(C/N=C(\S)NNc2ccc(NS(C)(=O)=O)cc2)cc1,–,Not Active,1460,–
CC(C)(C)c1ccc(CC(=O)NCc2ccc(NS(C)(=O)=O)cc2)cc1,5220,–,6760,efficacy [5]: 20%
CC(C)(C)c1ccc(CNC(=O)N(O)Cc2ccc(NS(C)(=O)=O)cc2)cc1,–,–,–,Ki [4]: Not Active
CCCCCCCC/C=C\CCCCCCCCNC(=O)Cc1ccc(NS(C)(=O)=O)cc1,> 25000,Not Active,–,Ki [4]: Not Active
CC(C)(C)c1ccc(CN(O)/C(S)=N/Cc2ccc(NS(C)(=O)=O)c(F)c2)cc1,–,–,–,Ki [4]: Not Active; EC50 [6]: > 7060 nM
Cc1ccc(CCCNC(=O)Cc2ccc(NS(C)(=O)=O)c(F)c2)cc1C,–,Not Active,4660,–
CC(C)(C)c1ccc(CNC(=O)NCc2ccc(NS(C)(=O)=O)cc2)cc1,2560,Not Active,225,–
Cc1ccc(CCCNC(=O)Cc2ccc(NS(C)(=O)=O)cc2)cc1C,7180,Not Active,13600,–
COc1cc(C/N=C(\S)N(O)Cc2ccc(C(C)(C)C)cc2)ccc1NS(C)(=O)=O,–,–,–,Ki [4]: Not Active
CC(C)(C)c1ccc(CO/C(S)=N/Cc2ccc(NS(C)(=O)=O)cc2)cc1,4600,–,6250,efficacy [5]: 13%
CC(C)(C)c1ccc(C/N=C(\S)OCc2ccc(NS(C)(=O)=O)cc2)cc1,772,Not Active,222,–
CC(C)(C)c1ccc(CNC(=S)NCc2ccc(NS(C)(=O)=O)cc2)cc1,–,Not Active,–,–
COc1cc(CNC(=S)NCc2ccc(C(C)(C)C)cc2)ccc1NS(C)(=O)=O,50.4,–,3.4,EC50 [5]: Partial agonist
CC(C)(C)c1ccc(N/N=C(\S)NCc2ccc(NS(C)(=O)=O)cc2)cc1,6400,Not Active,2010,–
CC(C)(C)c1ccc(CNC(=S)NCc2ccc(NS(C)(=O)=O)c(F)c2)cc1,53.5,Not Active,–,–
Oc1cc2c(cc1O)CN(C(=S)NCCc1ccc(Cl)cc1)CCC2 [CAPSAZEPINE],–,Not Active,–,–

# The next lines start with results.
Ki [1] [nM],EC50 [2],Ki [3] [nM],Structure (SMILES),further results
–,Not Active,470,CC(C)(C)c1ccc(C/N=C(\S)N(O)Cc2ccc(NS(C)(=O)=O)cc2)cc1,–
461,Not Active,110,COc1cc(CO/C(S)=N/Cc2ccc(C(C)(C)C)cc2)ccc1NS(C)(=O)=O,–
450,–,120,CC(C)(C)c1ccc(C/N=C(\S)OCc2ccc(NS(C)(=O)=O)c(F)c2)cc1,efficacy [5]: 7%
–,Not Active,635,CC(C)(C)c1ccc(CN(O)/C(S)=N/Cc2ccc(NS(C)(=O)=O)c([N+](=O)[O-])c2)cc1,–
–,Not Active,8400,COc1cc(C/N=C(\S)OCc2ccc(C(C)(C)C)cc2)ccc1NS(C)(=O)=O,–
–,–,6600,CC(C)(C)c1ccc(CN(O)C(=O)Cc2ccc(NS(C)(=O)=O)cc2)cc1,efficacy [5]: 30%
–,–,470,CC(C)(C)c1ccc(CN(O)/C(S)=N/Cc2ccc(NS(C)(=O)=O)cc2)cc1,efficacy [5]: 16%
2270,Not Active,–,CC(C)(C)c1ccc(CN(O)/C(S)=N/Cc2ccc(NS(C)(=O)=O)cc2Cl)cc1,Ki [4]: Not Active
472,Not Active,118,CC(C)(C)c1ccc(CNC(=O)Cc2ccc(NS(C)(=O)=O)c(F)c2)cc1,–
1310,Not Active,579,CC(C)(C)c1ccc(CN(O)/C(S)=N/Cc2ccc(NS(C)(=O)=O)c(Cl)c2)cc1,–
